Source: US20250215039A1, “NUCLEOSIDES FOR TREATING CANCER” (PRIMEFOUR THERAPEUTICS, INC., priority 2022, published 2025)
pIC50: −log10 of the molar value. Read-outs that look alike come from different tables or passages of the source.

System: cancer cell lines
Experiment: Cancer cell proliferation activity (CellTiterGlo, 72 h)
Format: cell-based
Conditions: 72 h, 72 h, read-out: IC50
Method in brief: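 Cells seeded overnight at 37 °C, then dosed with compound at 0.1% final DMSO and incubated 72 h at 37 °C (5% or 10% CO2 by medium).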

## C[C@]1(CO)O[C@@H](n2cc(F)c(=O)[nH]c2=O)C[C@@H]1O [Cpd. No. 105, 5-fluoro-1-((2R,4S,5R)-4-hydroxy-5-(hydroxymethyl)-5-methyltetrahydrofuran-2-yl)pyrimidine-2,4(1H,3H)-dione]
5637 cell line (bladder)
  pIC50: 6.13
CLS439 cell line (bladder)
  pIC50: < 4.30
HS729 cell line (muscle)
  pIC50: 5.86
HSS78T cell line
  pIC50: < 4.30
JAR cell line (placenta)
  pIC50: 5.23
SKMELS cell line
  pIC50: 5.29
Homo sapiens, 22Rv1, 72 h, 22RV1 cell line (prostate)
  pIC50: 6.51
Homo sapiens, 786-0, 72 h, 786O cell line (kidney)
  pIC50: 5.60
Homo sapiens, A204, 72 h, A204 cell line (muscle)
  pIC50: 5.59
Homo sapiens, A549, 72 h, A549 cell line
  pIC50: 6.28
Homo sapiens, A673, 72 h, A673 cell line (bone)
  pIC50: 5.55
Homo sapiens, A2780, 72 h, A2780 cell line (ovary)
  pIC50: 5.46
Homo sapiens, A-375, 72 h, A375 cell line (skin)
  pIC50: 5.45
Homo sapiens, A-431, 72 h, A431 cell line (skin)
  pIC50: 7.30
Homo sapiens, ACHN, ACHN cell line (kidney)
  pIC50: 6.57
Homo sapiens, ASPC1, 72 h, ASPC1 cell line (pancreas)
  pIC50: 6.80
Homo sapiens, BT-20, 72 h, BT20 cell line (breast)
  pIC50: < 4.30
Homo sapiens, BXPC-3, 72 h, BXPC3 cell line (pancreas)
  pIC50: 7.70
Homo sapiens, C-33-A, C33A cell line (cervical)
  pIC50: 5.80
Homo sapiens, CAKI-1, 72 h, CAKI1 cell line (kidney)
  pIC50: < 4.30
Homo sapiens, COLO 205, 72 h, COLO205 cell line (colon)
  pIC50: 6.51
Homo sapiens, COLO-678, 72 h, COLO678 cell line (colon)
  pIC50: < 4.30
Homo sapiens, Ca-Ski, CASKI cell line (cervical)
  pIC50: 5.61
Homo sapiens, Caco-2, 72 h, CACO2 cell line (colon)
  pIC50: < 4.30
Homo sapiens, Calu-6, 72 h, CALU6 cell line (lung)
  pIC50: 5.77
Homo sapiens, DLD-1, 72 h, DLD1 cell line (colon)
  pIC50: 5.43
Homo sapiens, DU-145, 72 h, DU145 cell line (prostate)
  pIC50: 6.00
Homo sapiens, EFO-21, 72 h, EFO21 cell line (ovary)
  pIC50: 5.56
Homo sapiens, EJ-28, 72 h, EJ28 cell line (bladder)
  pIC50: 5.76
Homo sapiens, Granta-519, 72 h, GRANTA-519 cell line (hematological)
  pIC50: 6.19
Homo sapiens, HCT-15, 72 h, HCT15 cell line (colon)
  pIC50: 5.53
Homo sapiens, HCT-116, 72 h, HCT116 cell line (colon)
  pIC50: 5.26
Homo sapiens, HEK293, 72 h, HEK293 cell line (kidney)
  pIC50: 5.36
Homo sapiens, HL-60, 72 h, HL-60 cell line (hematological)
  pIC50: 5.41
Homo sapiens, HT-29, 72 h, HT29 cell line (colon)
  pIC50: 6.28
Homo sapiens, HT-1080, 72 h, HT1080 cell line (connective tissue)
  pIC50: 5.57
Homo sapiens, HeLa, HELA cell line (cervical)
  pIC50: < 4.30
Homo sapiens, HepG2, 72 h, HEPG2 cell line (liver)
  pIC50: 6.11
Homo sapiens, IGROV-1, 72 h, IGROV1 cell line (ovary)
  pIC50: 5.52
Homo sapiens, IMR-90, 72 h, IMR.90 cell line
  pIC50: < 4.30
Homo sapiens, J82, 72 h, J82 cell line (bladder)
  pIC50: 6.00
Homo sapiens, JEG-3, 72 h, JEG3 cell line (placenta)
  pIC50: 5.93
Homo sapiens, JIMT-1, 72 h, JIMT1 cell line (breast)
  pIC50: 5.14
Homo sapiens, K562, 72 h, K-562 cell line (hematological)
  pIC50: 5.23
Homo sapiens, Kasumi 1, 72 h, KASUMI-1 cell line (hematological)
  pIC50: < 4.30
Homo sapiens, L-363, 72 h, L-363 cell line (hematological)
  pIC50: 5.55
Homo sapiens, LoVo, LOVO cell line (colon)
  pIC50: 6.29
Homo sapiens, MCF7, 72 h, MCF7 cell line (breast)
  pIC50: 6.77
Homo sapiens, MDA-MB-231, 72 h, MDAMB231 cell line (breast)
  pIC50: < 4.30
Homo sapiens, MDA-MB-435, 72 h, MDAMB435 cell line (skin)
  pIC50: 5.61
Homo sapiens, MDA-MB-436, 72 h, MDAMB436 cell line (breast)
  pIC50: 6.38
Homo sapiens, MDA-MB-468, 72 h, MDAMB468 cell line (breast)
  pIC50: 5.54
Homo sapiens, MG-63, 72 h, MG63 cell line (bone)
  pIC50: 5.74
Homo sapiens, MHH-ES-1, 72 h, MHHES1 cell line (bone)
  pIC50: 5.64
Homo sapiens, MIA PaCa-2, 72 h, MIAPACA2 cell line (pancreas)
  pIC50: 5.61
Homo sapiens, MINO, MINO cell line (hematological)
  pIC50: 6.24
Homo sapiens, MV4-11, 72 h, MV4-11 cell line (hematological)
  pIC50: 6.74
Homo sapiens, NCI-H23, 72 h, NCI-H23 cell line (lung)
  pIC50: 5.85
Homo sapiens, NCI-H82, 72 h, NCIH82 cell line (lung)
  pIC50: 5.34
Homo sapiens, NCI-H292, 72 h, NCIH292 cell line (lung)
  pIC50: < 4.30
Homo sapiens, NCI-H460, 72 h, NCIH460 cell line (lung)
  pIC50: 6.22
Homo sapiens, OVCAR-3, 72 h, OVCAR3 cell line (ovary)
  pIC50: 5.23
Homo sapiens, OVCAR-4, 72 h, OVCAR4 cell line (ovary)
  pIC50: 5.55
Homo sapiens, PANC-1, 72 h, PANC1 cell line (pancreas)
  pIC50: 5.30
Homo sapiens, PC-3, 72 h, PC3 cell line (prostate)
  pIC50: 5.09
Homo sapiens, PLC-PRF-5, 72 h, PLCPRF5 cell line (liver)
  pIC50: 5.76
Homo sapiens, Panc1005, 72 h, PANC1005 cell line (pancreas)
  pIC50: < 4.30
Homo sapiens, RD, RD cell line (muscle)
  pIC50: 5.46
Homo sapiens, Ramos, RAMOS cell line (hematological)
  pIC50: 5.50
Homo sapiens, SAOS-2, 72 h, SAOS2 cell line (bone)
  pIC50: 5.94
Homo sapiens, SF-268, 72 h, SF268 cell line (brain)
  pIC50: 5.97
Homo sapiens, SF-295, 72 h, SF295 cell line (brain)
  pIC50: 5.92
Homo sapiens, SK-BR-3, 72 h, SKBR3 cell line (breast)
  pIC50: 7.40
Homo sapiens, SK-HEP1, 72 h, SKHEP1 cell line (liver)
  pIC50: 5.87
Homo sapiens, SK-LMS-1, 72 h, SKLMS1 cell line (uterus)
  pIC50: 5.94
Homo sapiens, SK-MEL-28, 72 h, SKMEL28 cell line (skin)
  pIC50: < 4.30
Homo sapiens, SK-N-AS, SKNAS cell line (brain)
  pIC50: < 4.30
Homo sapiens, SK-N-SH, SKNSH cell line (brain)
  pIC50: < 4.30
Homo sapiens, SK-OV-3, 72 h, SKOV3 cell line (ovary)
  pIC50: 6.09
Homo sapiens, SNB-75, 72 h, SNB75 cell line (brain)
  pIC50: < 4.30
Homo sapiens, SU-DHL10, 72 h, SU-DHL-10 cell line (hematological)
  pIC50: 5.31
Homo sapiens, SU-DHL-6, 72 h, SU-DHL-6 cell line (hematological)
  pIC50: 5.26
Homo sapiens, SW-620, 72 h, SW620 cell line (colon)
  pIC50: 6.41
Homo sapiens, T-24, 72 h, T24 cell line (bladder)
  pIC50: 5.55
Homo sapiens, TE-671, 72 h, TE671 cell line (muscle)
  pIC50: 5.23
Homo sapiens, THP-1, 72 h, THP-1 cell line (hematological)
  pIC50: 5.77
Homo sapiens, U2OS, U2OS cell line (bone)
  pIC50: < 4.30
Homo sapiens, U-87 MG, U87MG cell line (brain)
  pIC50: < 4.30
Homo sapiens, UMUC3, 72 h, UMUC3 cell line (bladder)
  pIC50: 5.61
Homo sapiens, UO-31, 72 h, UO31 cell line (kidney)
  pIC50: < 4.30
Homo sapiens, WSU-NHL, WSU-NHL cell line (hematological)
  pIC50: 6.21
MT-3, 72 h, MT3 cell line (breast)
  pIC50: 6.05
NCI-H358M, NCIH358M cell line (lung)
  pIC50: 5.87
PBMC, PBMC (hematological)
  pIC50: 5.30
RD-ES, RDES cell line (bone)
  pIC50: 5.89
